# According to US4765972A (priority 1986, dated 1988):
# What was measured:
# [1] = tested on: 54.3 kDa polypeptide (tubulin subunit); test: Photolabelling of calf brain homogenate with ^3 H-NABV, 54.3 kDa polypeptide; type: binding
# Description: (§1) Tissue homogenate high speed supernatant and pellet fractions were obtained by homogenizing 1 gram of calf brain in 10 ml volumes of 0.05 M potassium phosphate buffer, pH 7.4, for one minute with a Model PCU Polytron homogenizer with a PT-10-ST probe operated at 50% maximum power (Brinkmann Instruments, Westbury, NY). The brain tissue homogenate was collected after filtering through one layer of cheesecloth. Brain tissue high speed supernatant fractions were prepared by centrifuging the homogenates at 100,000×g for 60 minutes at 4° C. The resulting pellet was washed twice with five times its original volume of buffer, and recentrifuged as described. […] and supernatant fractions were stored in small aliquots in liquid nitrogen and thawed only once.
# (§2) The standard photolabelling mixture used contained 50 nM ^3 H-NABV (50.6 Ci/mmol), 4% dimethylsulfoxide, […] potassium phosphate buffer, pH 7.0, and 2 mg/ml of tissue homogenate or high speed pellet or supernatant fractions in a final volume of 0.05 ml in polyvinylchloride V-microtiter wells (Dynatech Labs, Inc., Alexandria, VA) in a 25° C. water bath. Photolabelling mixtures were incubated for 15 minutes at 25° C. before photolysis. Photoactivation was performed for 10-20 minutes with a UV light equipped with two 15 W self-filtering 302 nm lamps (Model xx-15, Ultra-Violet Products, Inc., San Gabriel, CA), placed 3.4 cm above the photolabelling mixture. […] Photoactivated samples were immediately processed for SDS-PAGE or frozen at -70° C.
# (§3) Equal volumes of SDS sample buffer were added to photolabelled mixtures in microliter wells. The mixtures were transferred to 0.5 ml centrifuge tubes. After heating for five minutes at 100° C. on a heating block, the mixtures were cooled on ice and sonicated for five seconds, cooled, and 0.08 ml aliquots of the mixtures were applied to separate wells of a 1.5 mm thick polyacrylamide slab gel.
# (§4) Electrophoresis was performed as described by Laemmli in Nature (Lond.) 227, 680-685 (1970) with a linear polyacrylamide gradient from 9.7% acrylamide, 0.26% bis-acrylamide and 10% glycerol, to 16.6% acrylamide, 0.44% bis-acrylamide, and 17% glycerol using a Bio-Rad slab gel apparatus (Model 220, Richmond, CA) at 8 mA/gel for sixteen hours. Following fixation and staining of the gel, in 0.25% Coomassie brilliant blue, 45% methanol and 10% acetic acid, the lanes of stained polypeptide corresponding to each sample slot were cut and sliced into 1.0 mm slices. Each slice was incubated with 0.3 ml 30% H2 O2 in a closed scintillation vial at 100° C. for one hour to solubilize the gel slice, with radioactivity subsequently quantitated. The molecular weights of radioactive macromolecules were estimated by their mobilities relative to standard proteins of known molecular weights. (Bio-Rad, Richmone, CA). The radioactivity of photolabelled components was quantitated in triplicate by adding the dpm in each 1 mm gel slice through the radioactive peak.
# (§5) The specific photolabelling was obtained by subtracting the nonspecific linear curve from the mixed biphasic profile.
# [2] = In-vitro NABV metabolism in calf brain homogenates; type: in vitro ADME; conditions: dark, 30-60 minutes at 0°, 25°, and 37° C.
# Description: In-vitro NABV Metabolism Calf brain homogenates (100 micrograms protein) were incubated with 3H-NABV under standard photolabelling conditions for 30 minutes at 25° C. in the absence of UV light. The mixture was then extracted with 1 ml chloroform and analyzed for radioactive materials in the organic extract by silica gel thin layer chromatography using Solvent I.
# This was confirmed by incubating ^3 H-NABV with brain homogenates in the dark for 30-60 minutes at 0°, 25°, and 37° C., subsequently extracting the mixtures with chloroform, and analyzing for radioactive metabolites by silica gel thin layer chromatography and high pressure liquid chromatography. A single radioactive spot corresponded to the Rf of NABV and accounted for more than 98% of the recovered radioactivity.
# 21.5 kDa polypeptide = test: Photolabelling of calf brain homogenate with ^3 H-NABV, 21.5 kDa polypeptide; type: binding
# Description: as §1, §2, §3, §4, §5
# [3] = tested on: 150-180 kDa surface membrane glycoprotein (gp150-180); test: Photoaffinity labelling of purified plasma membranes with ^125 I-NASV; type: binding, Chinese hamster; conditions: for increase of radiolabelling of the 150-180 kDa component versus drug-sensitive parental cells: plasma membranes
# Description: (§6) Cell lines were cultured as described by Peterson et al., Cancer Res. 43, 222-228 (1983) and by Meyers et al., J. Cell. Biol. 100, 588-597 (1985). Vincristine-resistant (DC-3F/VCRd-5L, 2750-fold resistant) and actinomycin D-resistant (DC=3F/ADX, 2450-fold resistant) variants were selected from Chinese hamster lung (DC-3F) cells as described in the above-cited articles. The drug-sensitive revertant (DC-3F/ADX-U, 30-fold resistant to actinomycin D) was obtained from DC-3F/ADX cells grown in the absence of drugs. The resistant cells expressed a typical multidrug-resistant phenotype as typified by cross-resistance to a number of unrelated natural product compounds. Whole cell particulate fractions were prepared by the sonication of drug-sensitive or drug-resistant cells in 50 mM potassium phosphate buffer (pH 7.4), followed by centrifugation at 100,000×g for one hour. The particulate pellet was washed by resuspending in the same buffer, and the whole cell particulate fraction was obtained by a second centrifugation. Purified plasma membranes were prepared by sucrose density gradient centrifugation as described in Peterson et al in J. Supramolecular Structure 9, 289-298 (1978). Protein concentrations were determined by the procedure of Lowry et al., J. Biol. Chem., 193, 265-275 (1951).
# Photolabelling of membrane samples (50 micrograms protein) was performed in 40 nM potassium phosphate buffer (pH 7.0) containing 4% Me2 SO and 50 nM of either ^3 H-NABV (0.1 microCi) or ^125 I-NASV (0.2 microCi) in a final volume of 0.050 ml. […] SDS-PAGE of 5-15% gradient gels containing 4.5 M urea, fluorography, and autoradiography were performed as described by Felsted et al. in Blood 66, 606-613 (1985). The quantitation of radiolabelling was accomplished by cutting appropriate areas from the gel and counting the pieces in a gamma counter.
# A plasma membrane localization for the 150-180 kDa component was established by photoaffinity labelling sucrose density gradient purified plasma membranes from drug-sensitive and drug-resistant cells with ^3 H-NABV. […] These membranes, as well as membranes from another multidrug-resistant variant (DC-3F/ADX) originally selected for resistance to actinomycin D and from a revertant (DC-3F/ADX-U) obtained from the DC-3F/ADX variant were also photoaffinity labelled with ^125 I-NASV. […] In contrast, radiolabelling of the 150-180 kDa component in the DC-3F/ADX-U revertant cells was increased by only about 15-fold. […] In other studies, a number of drug-sensitive cell lines have been shown by immunoblottings to have barely detectable levels of analogous 150-180 kDa surface membrane glycoproteins compared to the corresponding multidrug-resistant variants. […]
# tubulin [4] = test: Tubulin aggregation; type: biochemical; conditions: both drugs at similar concentrations
# [5] = tested on: 150-180 kDa surface membrane glycoprotein (gp150-180); test: Immunoprecipitation of ^125 I-NASV photolabelled, detergent solubilized membranes with antibody specific for gp150-180; type: binding, Chinese hamster; conditions: DC-3F/VCRd-5L membranes, vinblastine
# Description: Immunoprecipitations were performed by extracting membranes (20 micrograms protein) for fifteen minutes at 4° C. with 100 microliters of 50 mM Tris-HCl buffer (pH 7.0) containing 150 mM NaCl, 1% Triton X-100, 1% sodium deoxycholate, 0.1% SDS, 1 mM ethylenediamine tetraacetic acid, 1 mM phenylmethylsulfonylfluoride, and 10 mg/ml Trayslol (Boehringer Mannheim, Indianapolis, IN). The mixtures were then incubated for one hour at 5° C. with 10 microliters rabbit polyclonal antibody specific for multidrug-resistant 150-180 kDa surface membrane glycoprotein (gp150-180).Immune complexe were obtained by incubating the mixture with Protein A-Sepharose (Pharmacia, Piscataway, NJ) for one hour at 5° C. and recovering the beads after washing four times. […]
# (§7) Photolabelling of membrane samples (50 micrograms protein) was performed in 40 nM potassium phosphate buffer (pH 7.0) containing 4% Me2 SO and 50 nM of either ^3 H-NABV (0.1 microCi) or ^125 I-NASV (0.2 microCi) in a final volume of 0.050 ml. […] The quantitation of radiolabelling was accomplished by cutting appropriate areas from the gel and counting the pieces in a gamma counter.
# The radiolabelled 150-180 kDa polypeptide was immunoprecipitated only from membrane extracts of drug-resistant cells. No radioactivity was precipitated when nonimmune serum was used in place of the specific antibody. […]
# microtubule = test: In vitro microtubule assembly; type: biochemical; conditions: both drugs at similar concentrations
# [6] = tested on: 150-180 kDa surface membrane glycoprotein (gp150-180); test: Photoaffinity labelling of cell particulate fractions / plasma membranes with ^3 H-NABV, competition by vinblastine; type: binding, Chinese hamster
# Description: as §6, with “The particulate pellet was washed by resuspending in the same buffer, and the whole cell particulate fraction was obtained by a second centrifugation. Purified plasma membranes were prepared by sucrose density gradient centrifugation as described in Peterson et al in J. Supramolecular Structure 9, 289-298 (1978).” left out
# as §7, with “counter. […]” for “counter.”
# [7] = tested on: P388 murine leukemic cells; test: Growth inhibition of exponentially growing P388 cells; type: cell-based; conditions: Mus musculus; 72 hours exposure; exponentially growing P388 cells; read-out: IC50
# Text: Thus, NABV is ideal for probing intracellular Vinca alkaloid interactions because it retains the known biochemical and pharmacological properties of this class of drugs.
# tubulin [8] = test: Tubulin-dependent GTP hydrolysis; type: biochemical; conditions: both drugs at similar concentrations
# [9] = corrected for nonspecific labelling, apparent, not a true equilibrium constant, read-out: half maximal saturation photolabelling
# [10] = saturation photolabelling experiments
# [11] = 0.44 micromoles ^3 H-NABV, competitor 1-22 micromoles
compound,measurement,setting,value
"N-(p-azido-[3,4-^3 H]benzoyl)-N'-beta-aminoethylvindesine [^3 H-NABV]",maximum saturable incorporation,[1],5.5 pmol ^3 H-NABV bound/mg of calf brain homogenate protein
same,Kd,[1]; [9],208 nM
same,percent of total labelling ascribed to nonspecific labelling,[1]; [10],48%
same,metabolism under standard photolabelling conditions,[2],no appreciable metabolism
same,recovered radioactivity in the single spot corresponding to the Rf of NABV,[2]; TLC and HPLC,more than 98%
same,maximum saturable incorporation,21.5 kDa polypeptide,0.9 pmol ^3 H-NABV bound/mg of calf brain homogenate protein
same,Kd,21.5 kDa polypeptide; [9],95 nM
same,percent of total labelling ascribed to nonspecific labelling,21.5 kDa polypeptide; [10],51%
N-(p-azido-3-[^125 I-]-salicyl-N'-beta-aminoethylvindesine [^125 I-NASV],increase of radiolabelling of the 150-180 kDa component versus drug-sensitive parental cells,[3]; DC-3F/ADX-U revertant cells,about 15 fold
same,increase of radiolabelling of the 150-180 kDa component versus drug-sensitive parental cells,"[3]; drug-resistant variants (DC-3F/VCRd-5L, DC-3F/ADX)",up to 150 fold
CC[C@]1(O)C[C@@H]2CN(CCc3c([nH]c4ccccc34)[C@@](C(=O)OC)(c3cc4c(cc3OC)N(C)[C@H]3[C@@](O)(C(=O)OC)[C@H](OC(C)=O)[C@]5(CC)C=CCN6CC[C@]43[C@@H]65)C2)C1 [vinblastine],reduction of radiolabelling of the 150-180 kDa component,"[3]; drug-resistant variants, ^125 I-NASV, 10 micromoles vinblastine",80-90%
same,radiolabelling of the 150-180 kDa component in the presence of vinblastine,"[3]; parental and revertant cells, ^125 I-NASV, 10 micromoles vinblastine",completely absent
same,effect on tubulin aggregation,tubulin [4],induce tubulin aggregation
same,reduction of radiolabel in the immunoprecipitate,[5],96%
same,effect on in vitro microtubule assembly,microtubule,inhibit in vitro microtubule assembly
same,reduction of radiolabelling of the 150-180 kDa component,"[6]; sucrose density gradient purified plasma membranes, 10 micromole vinblastine",59%
same,radiolabelling of the 150-180 kDa component in the presence of vinblastine,"[6]; whole cell particulate fractions, DC-3F/VCRd-5L, 10 micromoles vinblastine",substantially reduced
same,IC50,[7],0.6 nM
same,effect on tubulin-dependent GTP hydrolysis,tubulin [8],inhibit tubulin-dependent GTP hydrolysis
COc1cccc2c1C(=O)c1c(O)c3c(c(O)c1C2=O)C[C@@](O)(C(C)=O)C[C@@H]3O[C@H]1C[C@H](N)[C@H](O)[C@H](C)O1 [daunorubicin],effect of increasing concentrations of competitor on photolabelling,[1]; [11],negligible effects
same,effect of increasing concentrations of competitor on photolabelling,21.5 kDa polypeptide; [11],negligible effects
Nc1ccc(C(=O)O)cc1 [p-aminobenzoic acid],reduction of photolabelling by nitrene scavenger,[1]; 100-fold excess over [^3 H]-NABV,25%
same,further reduction of photolabelling by nitrene scavenger,[1]; up to 10^4 -fold molar excess,no significant further reduction
same,effect of nitrene scavenger on photolabelling,21.5 kDa polypeptide; 10^3 -fold molar excess,no significant effect
same,reduction of photolabelling by nitrene scavenger,21.5 kDa polypeptide; 10^4 -fold molar excess,30%
